Data on 97 compounds can be found in ChEMBL document CHEMBL6182931, “Chemical Evolution of Aplithianine Class of Serine/Threonine Kinase Inhibitors” (J Med Chem, 2025).

Structures are written as SMILES.

This test in a line: Inhibition of DNAJB1-PKAcalpha (unknown origin) using biotinylated-peptide substrate CREB incubated for 45 mins in presence of ATP and cAMP by ELISA. Also on record: species or system Homo sapiens. A general note: ELISA stands for enzyme-linked immunosorbent assay.
A word on the IC50: it is the concentration at which inhibition is half-maximal. With `N[C@H]1CCCC[C@H]1NC(=O)C1=CN(c2ncnc3[nH]ccc23)CCS1`, the IC50 is 2600 nM. Next, `C1=C(c2cc[nH]n2)SCCN1c1ncnc2[nH]ccc12`: 2000 nM; `Cc1ncoc1C1=CN(c2ncnc3[nH]cc(C)c23)CCS1`: above 10000 nM; `C1=C(c2cc[nH]n2)SCCN1c1ncnc2[nH]cnc12`: above 10000 nM. Next, `Cc1c[nH]c2ncnc(N3C=C(c4cccnc4)SCC3)c12`: above 10000 nM; `O=C(N[C@H](c1ccccc1)[C@@H]1CCCN1)C1=CN(c2ncnc3[nH]ccc23)CCS1`: 640 nM. For `O=C(NC[C@@H]1CCCCN1)C1=CN(c2ncnc3[nH]ccc23)CCS1`, the IC50 came to 660 nM. Turning to `Cc1c[nH]c2ncnc(N3C=C(c4cc[nH]n4)SCC3)c12`, the IC50 amounted to 5200 nM. Turning to `Cc1c[nH]c2nccc(N3C=C(C(=O)N4CCC[C@@H](N)C4)SCC3)c12`, the half-inhibitory concentration (IC50) was determined as 37 nM. For `Cc1noc(C)c1C1=CN(c2ncnc3[nH]cc(C)c23)CCS1` the value was above 10000 nM. For `CCCc1cc2c(N3C=C(c4ccnc5[nH]ccc45)SCC3)ncnc2s1` the value was 1100 nM; for `N[C@@H]1CCCC[C@@H]1NC(=O)C1=CN(c2ncnc3[nH]ccc23)CCS1`, 130 nM; for `CN[C@@H]1CCCN(C(=O)C2=CN(c3ncnc4[nH]cnc34)CCS2)C1`, 260 nM. For `Cc1cc(N2C=C(c3ccnc4[nH]ccc34)SCC2)nc(N(C)C)n1` the value was 3000 nM; for `CN[C@@H]1CCCN(C(=O)C2=CN(c3ccnc4[nH]ccc34)CCS2)C1`, 570 nM. As to `NC1(CNC(=O)C2=CN(c3ncnc4[nH]ccc34)CCS2)CCC1`, the concentration for half-maximal inhibition (IC50) turned out to be 180 nM. Next, `CN[C@H]1CCCN(C(=O)C2=CN(c3ncnc4[nH]cc(C)c34)CCS2)C1`: 400 nM. In the case of `C[C@H]1C[C@@H](N)CN(C(=O)C2=CN(c3ncnc4[nH]ccc34)CCS2)C1`, the IC50 was determined as 6 nM. Next, `C[C@H](N)CNC(=O)C1=CN(c2ncnc3[nH]ccc23)CCS1`: 180 nM; `C1=C(c2cccnc2)SCCN1c1ncnc2[nH]ccc12`: above 10000 nM; `NCC1(NC(=O)C2=CN(c3ncnc4[nH]ccc34)CCS2)CCC1`: 170 nM.

With `C[C@H](CN)NC(=O)C1=CN(c2ncnc3[nH]ccc23)CCS1`, the half-inhibitory concentration (IC50) amounted to 530 nM.

As for `Cc1ncoc1C1=CN(c2ncnc3[nH]ccc23)CCS1`, the IC50 was found to be 4500 nM. With `O=C(NCCNC(=O)c1ccccc1)C1=CN(c2ncnc3[nH]cnc23)CCS1`, the IC50 is above 10000 nM. Next, `O=C(C1=CN(c2ncnc3[nH]ccc23)CCS1)N1C[C@@H]2CCCN[C@@H]2C1`: 1100 nM; `NCCCCCCNC(=O)C1=CN(c2ncnc3[nH]ccc23)CCS1`: 2900 nM; `FC(F)(F)COc1cc(N2C=C(c3ccnc4[nH]ccc34)SCC2)ncn1`: 820 nM. On to `C1=C(c2cccnc2)SCCN1c1ncnc2[nH]cnc12`, for which the half-inhibitory concentration (IC50) was above 10000 nM. For `N[C@H]1CCCN(C(=O)C2=CN(c3ccnc4[nH]ccc34)CCS2)C1`, the IC50 was found to be 68 nM. Take `C[C@]1(N)CCCN(C(=O)C2=CN(c3ccnc4[nH]ccc34)CCS2)C1`: the IC50 turned out to be 420 nM. For the compound `Cc1c[nH]c2nccc(N3C=C(C(=O)N4CCC[C@@](C)(N)C4)SCC3)c12`, the IC50 was determined as 43 nM.

As for `C[C@@]1(N)CCCN(C(=O)C2=CN(c3ncnc4[nH]cnc34)CCS2)C1`, the half-inhibitory concentration (IC50) was determined as 62 nM. Next, `Cc1c[nH]c2nccc(N3C=C(C(=O)N4CCC[C@H](N)C4)SCC3)c12`: 280 nM; `Cc1c[nH]c2nccc(N3C=C(C(=O)N4CCC[C@](C)(N)C4)SCC3)c12`: 500 nM. Next, `C1=C(c2ccnc3[nH]ccc23)SCCN1c1cc(N2CCOCC2)ncn1`: 600 nM. On to `Fc1cncnc1N1C=C(c2ccnc3[nH]ccc23)SCC1`, for which the IC50 came out at 37 nM. Next, `C[C@@H]1[C@H](N)CCCN1C(=O)C1=CN(c2ncnc3[nH]ccc23)CCS1`: 200 nM; `CN(C[C@@H]1CCCCN1)C(=O)C1=CN(c2ncnc3[nH]ccc23)CCS1`: 1200 nM; `CC(C)(C)c1cc(N2C=C(c3ccnc4[nH]ccc34)SCC2)ncn1`: 7900 nM. Take `C[C@@H](CN)NC(=O)C1=CN(c2ncnc3[nH]ccc23)CCS1`: the IC50 was determined as 110 nM. For `N[C@@H]1CCCCN(C(=O)C2=CN(c3ncnc4[nH]ccc34)CCS2)C1` the value was 130 nM. For `Cc1c[nH]c2ncnc(N3C=C(c4cnn(C)c4)SCC3)c12` the value was 5500 nM; for `CN[C@@H]1CCCN(C(=O)C2=CN(c3ncnc4[nH]ccc34)CCS2)C1`, 87 nM.

In the case of `O=C(NC[C@H]1CCCN1)C1=CN(c2ncnc3[nH]ccc23)CCS1`, the 50% inhibitory concentration (IC50) stood at 380 nM. For the compound `Cc1ncc(C2=CN(c3ncnc4[nH]cnc34)CCS2)o1`, the IC50 was 5200 nM. `CC(C)(N)CNC(=O)C1=CN(c2ncnc3[nH]ccc23)CCS1`: the IC50 turned out to be 380 nM. Next, `NCCCCNC(=O)C1=CN(c2ncnc3[nH]ccc23)CCS1`: 210 nM; `Cc1c[nH]c2ncnc(N3C=C(c4ccnn4C)SCC3)c12`: above 10000 nM. As for `N[C@@H]1CCCN(C(=O)C2=CN(c3ncnc4[nH]ccc34)CCS2)C1`, the IC50 came to 8 nM. Regarding `NCCNC(=O)C1=CN(c2ccnc3[nH]ccc23)CCS1`, the IC50 is 160 nM. Take `C1=C(c2ccnc3[nH]ccc23)SCCN1c1cc(-c2ccsc2)ncn1`: the 50% inhibitory concentration (IC50) was determined as 2200 nM. As to `Cc1noc(C)c1C1=CN(c2ncnc3[nH]cnc23)CCS1`, the IC50 was found to be 6900 nM. Next, `Cc1ncoc1C1=CN(c2ncnc3[nH]cnc23)CCS1`: 1400 nM; `Cc1c[nH]c2ncnc(N3C=C(c4cnco4)SCC3)c12`: 1800 nM; `CN[C@H]1CCCN(C(=O)C2=CN(c3ncnc4[nH]cnc34)CCS2)C1`: 770 nM. Next, `N[C@H]1CCCCN(C(=O)C2=CN(c3ncnc4[nH]ccc34)CCS2)C1`: 570 nM; `Cn1nccc1C1=CN(c2ncnc3[nH]ccc23)CCS1`: above 10000 nM; `C[C@]1(N)CCCN(C(=O)C2=CN(c3ncnc4[nH]cnc34)CCS2)C1`: 2200 nM. For `N[C@@H]1CCCC[C@H]1NC(=O)C1=CN(c2ncnc3[nH]ccc23)CCS1` the value was 2300 nM.

On to `O=C(N[C@@H]1CCNC1)C1=CN(c2ncnc3[nH]ccc23)CCS1`, for which the IC50 was determined as 380 nM. Next, `O=C(N[C@H]1CCNC1)C1=CN(c2ncnc3[nH]ccc23)CCS1`: 68 nM; `C[C@H]1[C@H](N)CCCN1C(=O)C1=CN(c2ncnc3[nH]ccc23)CCS1`: 2000 nM. Next, `N[C@@H]1c2ccccc2C[C@@H]1NC(=O)C1=CN(c2ncnc3[nH]ccc23)CCS1`: 410 nM; `Cc1cc(N2C=C(c3ccnc4[nH]ccc34)SCC2)nc(N2CCCCC2)n1`: above 10000 nM; `O=C(NC[C@H]1CCCCN1)C1=CN(c2ncnc3[nH]ccc23)CCS1`: 680 nM.

Regarding `CN[C@@H]1CCCN(C(=O)C2=CN(c3ccnc4[nH]cc(C)c34)CCS2)C1`, the IC50 stood at 730 nM. As for `Cn1nccc1C1=CN(c2ncnc3[nH]cnc23)CCS1`, the 50% inhibitory concentration (IC50) was 7200 nM. Next, `Cc1ncc(C2=CN(c3ncnc4[nH]cc(C)c34)CCS2)o1`: above 10000 nM; `NC[C@H](NC(=O)C1=CN(c2ncnc3[nH]ccc23)CCS1)c1ccccc1`: 110 nM; `N[C@H]1CCN(C(=O)C2=CN(c3ncnc4[nH]ccc34)CCS2)C1`: 500 nM.

As for `O=C(N[C@@H](c1ccccc1)[C@@H]1CCCN1)C1=CN(c2ncnc3[nH]ccc23)CCS1`, the IC50 worked out at 13 nM. Next, `FC(F)(F)c1cc(N2C=C(c3ccnc4[nH]ccc34)SCC2)ncn1`: 2400 nM. Next, `C1=C(c2ccncn2)SCCN1c1ccnc2[nH]ccc12`: above 10000 nM.

Consider `C[C@@H]1CCN(C(=O)C2=CN(c3ncnc4[nH]ccc34)CCS2)C[C@@H]1N`, for which the IC50 is 60 nM. For `CN(C[C@H]1CCCCN1)C(=O)C1=CN(c2ncnc3[nH]ccc23)CCS1` the value was 420 nM; for `Cn1cc(C2=CN(c3ncnc4[nH]cnc34)CCS2)cn1`, 2700 nM. For `CC(=O)NCCNC(=O)C1=CN(c2ncnc3[nH]cnc23)CCS1` the value was above 10000 nM; for `N[C@@H]1CCN(C(=O)C2=CN(c3ncnc4[nH]ccc34)CCS2)C1`, 98 nM; for `Cc1noc(C)c1C1=CN(c2ncnc3[nH]ccc23)CCS1`, above 10000 nM. `C1=C(c2cnco2)SCCN1c1ncnc2[nH]cnc12`: the IC50 came to 1800 nM. Turning to `O=C(C1=CN(c2ncnc3[nH]ccc23)CCS1)N1CCn2ccnc2C1`, the IC50 came out at 230 nM.

As to `NCCCNC(=O)C1=CN(c2ncnc3[nH]ccc23)CCS1`, the IC50 is 360 nM. As for `O=C(NC[C@@H]1CCCN1)C1=CN(c2ncnc3[nH]ccc23)CCS1`, the IC50 is 350 nM.

With `C[C@@H](N)CNC(=O)C1=CN(c2ncnc3[nH]ccc23)CCS1`, the half-inhibitory concentration (IC50) came to 180 nM. For the compound `NCCNC(=O)C1=CN(c2ncnc3[nH]cnc23)CCS1`, the half-inhibitory concentration (IC50) stood at 1300 nM. For the compound `CN[C@H]1CCCN(C(=O)C2=CN(c3ccnc4[nH]ccc34)CCS2)C1`, the IC50 is 270 nM. As for `O=C(N[C@H](c1ccccc1)[C@H]1CCCN1)C1=CN(c2ncnc3[nH]ccc23)CCS1`, the half-maximal inhibitory concentration (IC50) is 82 nM. With `N[C@@H]1CCCN(C(=O)C2=CN(c3ccnc4[nH]ccc34)CCS2)C1`, the IC50 worked out at 19 nM. As for `Cc1cc(N2C=C(c3ccnc4[nH]ccc34)SCC2)nc(C(C)(C)C)n1`, the IC50 was above 10000 nM. Next, `N[C@H]1CCCN(C(=O)C2=CN(c3ncnc4[nH]ccc34)CCS2)C1`: 81 nM; `Cc1ncc(C2=CN(c3ncnc4[nH]ccc34)CCS2)o1`: above 10000 nM; `O=C(C1=CN(c2ncnc3[nH]ccc23)CCS1)N1CCc2nc[nH]c2C1`: 580 nM.

On to `C1=C(c2cnco2)SCCN1c1ncnc2[nH]ccc12`, for which the concentration for half-maximal inhibition (IC50) turned out to be 2900 nM. Next, `CN[C@H]1CCCN(C(=O)C2=CN(c3ccnc4[nH]cc(C)c34)CCS2)C1`: 530 nM; `CN(CCN)C(=O)C1=CN(c2ncnc3[nH]ccc23)CCS1`: 370 nM; `C1=C(c2ccnc3[nH]ccc23)SCCN1c1cc(OCc2ccccc2)ncn1`: 330 nM. Next, `CN[C@H]1CCCN(C(=O)C2=CN(c3ncnc4[nH]ccc34)CCS2)C1`: 310 nM.
